Reference: patent US8138168B1 (Takeda Pharmaceutical Company Limited, priority 2007, dated 2012)
Read-outs that look alike come from different tables or passages of the source.

Target: T1, Recombinant human renin (Homo sapiens, UniProt P00797)
T1 construct: isolate the active form (residues 67-406); made in house; host or cells: FreeStyle 293-F cells (transient expression of pcDNA3.1(+)/hREN)
T1 sequence (P00797 67-406): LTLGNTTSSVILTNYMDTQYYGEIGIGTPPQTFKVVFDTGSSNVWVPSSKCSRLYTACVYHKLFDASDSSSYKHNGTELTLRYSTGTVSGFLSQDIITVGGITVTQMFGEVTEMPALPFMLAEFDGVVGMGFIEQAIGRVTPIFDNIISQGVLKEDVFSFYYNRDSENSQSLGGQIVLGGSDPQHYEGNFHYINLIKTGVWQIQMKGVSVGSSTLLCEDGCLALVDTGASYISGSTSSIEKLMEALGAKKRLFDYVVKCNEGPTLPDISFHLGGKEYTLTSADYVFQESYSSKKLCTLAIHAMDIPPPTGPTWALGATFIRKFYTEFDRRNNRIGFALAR
Assay: In vitro enzymatic activity assay of renin inhibitors (fluorogenic peptide substrate)
Type: biochemical
Procedure: Test compounds in varying concentrations may be reacted with recombinant human renin in the presence of substrate, e.g., QXL520-γ-Abu-[…](HiLyteFluo488)-Arg-OH (Anaspec, San Jose, Calif.). […] Inhibition constants (IC50) may be calculated by non-linear curve fitting of the compound concentrations and fluorescence intensities to the standard IC50 equation.
Solutions of test compounds in varying concentrations mM final concentration) are prepared in dimethyl sulfoxide (DMSO) and then diluted into assay buffer comprising 50 mM Hepes, 1 mM EDTA, 1 mM DTT, 0.1 mg/mL BSA, 0.01% Brij35, pH 7.4. Alternatively, the assay can be performed with a high BSA concentration, wherein the buffer contains an additional 2% BSA.
Recombinant human renin (3 nM final concentration) is added to the dilutions and pre-incubated with the compounds for 10 minutes at 37° C. […] After pre-incubation, the reaction is initiated with of substrate QXL520-γ-Abu-[…](HiLyteFluo488)-Arg-OH (Anaspec, San Jose, Calif.). The final DMSO in the assay is 5%. The total volume of the reaction mixture is 20 μL, which can be placed on Greiner 384-well small volume plates.
The fluorescence intensity is determined upon the addition of substrate and determined again after incubation at 37° C. for one hour. The fluorescence intensity of a blank (no inhibition) using vehicle alone is also determined. Renin activity is linearly proportional to the change in fluorescence observed (final-initial).

[1] = read-out: IC50 of Exemplified Compounds Against Renin

Row | SMILES | IC50 [1] [nM] | IC50 [nM]
1 | COCCCn1c(C2CCCN(C(=O)C[C@H](N)Cc3ccc4ccccc4c3)C2)nc2ccc(Cl)nc21 (stereo partly drawn) [Compound 102, (R)-3-amino-1-(3-(5-chloro-3-(3-methoxypropyl)-3H-imidazo[4,5-b]pyridin-2-yl)piperidin-1-yl)-4-(naphthalen-2-yl)butan-1-one] | > 1000 | 
2 | O=C(NC1CCCCC1)N1CCCC(c2nc3ccccc3[nH]2)C1 (stereo not drawn) [Compound 10, 3-(1H-benzo[d]imidazol-2-yl)-N-cyclohexylpiperidine-1-carboxamide] | > 1000 | 
3 | COCCCn1c([C@@H]2CCCN(C(=O)[C@@H]3CN(C(=O)c4ccc(C(=O)OC)cc4)C[C@H]3N)C2)nc2ccccc21 [Compound 422, methyl 4-((3S,4R)-3-amino-4-((R)-3-(1-(3-methoxypropyl)-1H-benzo[d]imidazol-2-yl)piperidine-1-carbonyl)pyrrolidine-1-carbonyl)benzoate] | > 1000 | 
4 | COCCCn1c([C@@H]2CCCN(C(=O)C[C@H](N)CNC(=O)C3CCCC3)C2)nc2ccccc21 [Compound 331, N-((S)-2-amino-4-((R)-3-(1-(3-methoxypropyl)-1H-benzo[d]imidazol-2-yl)piperidin-1-yl)-4-oxobutyl)cyclopentanecarboxamide] | > 1000 | 
5 | Cc1ccccc1C[C@@H](N)CC(=O)N1CCCC(c2nc3ccccc3[nH]2)C1 (stereo partly drawn) [Compound 42, (3R)-1-(3-(1H-benzo[d]imidazol-2-yl)piperidin-1-yl)-3-amino-4-o-tolylbutan-1-one] | > 1000 | 
6 | COCCCn1c([C@@H]2CCCN(C(=O)[C@@H]3CN(C(=O)Oc4ccccc4Cl)C[C@H]3N)C2)nc2ccccc21 [Compound 390, (3S,4R)-2-chlorophenyl 3-amino-4-((R)-3-(1-(3-methoxypropyl)-1H-benzo[d]imidazol-2-yl)piperidine-1-carbonyl)pyrrolidine-1-carboxylate] |  | > 1000
7 | COCCCn1c([C@@H]2CCCN(C(=O)[C@@H]3CN(C(=O)c4ccccc4C(=O)OC)C[C@H]3N)C2)nc2ccccc21 [Compound 424, methyl 2-((3S,4R)-3-amino-4-((R)-3-(1-(3-methoxypropyl)-1H-benzo[d]imidazol-2-yl)piperidine-1-carbonyl)pyrrolidine-1-carbonyl)benzoate] | > 1000 | 
8 | CC(=O)NCCn1c([C@@H]2CCCN(C(=O)C[C@H](N)Cc3ccc(-c4ccc(N)nc4)cc3)C2)nc2ccccc21 [Compound 446, N-(2-(2-((R)-1-((R)-3-amino-4-(4-(6-aminopyridin-3-yl)phenyl)butanoyl)piperidin-3-yl)-1H-benzo[d]imidazol-1-yl)ethyl)acetamide] | 100 to 1000 | 
9 | COCCCn1c([C@@H]2CCCN(C(=O)[C@@H]3CN(C(=O)c4cccnc4Oc4ccccc4)C[C@H]3N)C2)nc2ccccc21 [Compound 366, ((3R,4S)-4-amino-1-(2-phenoxynicotinoyl)pyrrolidin-3-yl)((R)-3-(1-(3-methoxypropyl)-1H-benzo[d]imidazol-2-yl)piperidin-1-yl)methanone] | 100 to 1000 | 

Second part, led by results:

Row | IC50 [1] [nM] | SMILES | IC50 [nM]
10 | < 100 | COCCCn1c([C@@H]2CCCN(C(=O)C[C@H](N)Cc3ccc(-c4ccnc(Cl)c4)cc3)C2)nc2ccccc21 [Compound 133, (R)-3-amino-4-(4-(2-chloropyridin-4-yl)phenyl)-1-((R)-3-(1-(3-methoxypropyl)-1H-benzo[d]imidazol-2-yl)piperidin-1-yl)butan-1-one] | 
11 | < 100 | COCCCn1c([C@@H]2CCCN(C(=O)C[C@H](N)Cc3ccc(-c4ccc(NC(=O)NC5CC5)cc4)cc3)C2)nc2ccccc21 [Compound 171, 1-(4′-((R)-2-Amino-4-((R)-3-(1-(3-methoxypropyl)-1H-benzo[d]imidazol-2-yl)piperidin-1-yl)-4-oxobutyl)biphenyl-4-yl)-3-cyclopropylurea] | 
12 | 100 to 1000 | COCCCn1c([C@@H]2CCCN(C(=O)C[C@H](N)CNC(=O)c3ccc4c(c3)CCO4)C2)nc2ccccc21 [Compound 271, N-((S)-2-amino-4-((R)-3-(1-(3-methoxypropyl)-1H-benzo[d]imidazol-2-yl)piperidin-1-yl)-4-oxobutyl)-2,3-dihydrobenzofuran-5-carboxamide] | 
13 | 100 to 1000 | COCCCn1c([C@@H]2CCCN(C(=O)C[C@H](N)Cc3ccc(Cl)c(Cl)c3)C2)nc2ccccc21 [Compound 77, (R)-3-amino-4-(3,4-dichlorophenyl)-1((R)-3-(1-(3-methoxypropyl)-1H-benzo[d]imidazol-2-yl)piperidin-1-yl)butan-1-one] | 
14 | 100 to 1000 | COCCCn1c([C@@H]2CCCN(C(=O)[C@@H]3CN(S(=O)(=O)C(C)C)C[C@H]3N)C2)nc2ccccc21 [Compound 371, ((3R,4S)-4-amino-1-(isopropylsulfonyl)pyrrolidin-3-yl)((R)-3-(1-(3-methoxypropyl)-1H-benzo[d]imidazol-2-yl)piperidin-1-yl)methanone] | 
15 | 100 to 1000 | COCCCn1c([C@@H]2CCCN(C(=O)C[C@H](N)c3cccc(Br)c3)C2)nc2ccccc21 [Compound 80, (S)-3-amino-3-(3-bromophenyl)-1((R)-3-(1-(3-methoxypropyl)-1H-benzo[d]imidazol-2-yl)piperidin-1-yl)propan-1-one] | 
16 | < 100 | COCCCn1c([C@@H]2CCCN(C(=O)C[C@H](N)Cc3ccc(-c4ccc5c(c4)NC(=O)C5)cc3)C2)nc2c(F)cccc21 [Compound 459, 6-(4-((R)-2-amino-4-((R)-3-(4-fluoro-1-(3-methoxypropyl)-1H-benzo[d]imidazol-2-yl)piperidin-l-yl)-4-oxobutyl)phenyl)indolin-2-one] | 
17 | < 100 | COCCCn1c([C@@H]2CCCN(C(=O)C[C@H](N)Cc3ccc(-c4ccc(C(=O)NC(C)(C)CO)cc4)cc3)C2)nc2ccccc21 [Compound 183, 4′-((R)-2-amino-4-((R)-3-(1-(3-methoxypropyl)-1H-benzo[d]imidazol-2-yl)piperidin-1-yl)-4-oxobutyl)-N-(1-hydroxy-2-methylpropan-2-yl)biphenyl-4-carboxamide] | 
18 | 100 to 1000 | CCOc1ccccc1NC(=O)NC[C@@H](N)CC(=O)N1CCC[C@@H](c2nc3ccccc3n2CCCOC)C1 [Compound 285, 1-((S)-2-amino-4-((R)-3-(1-(3-methoxypropyl)-1H-benzo[d]imidazol-2-yl)piperidin-1-yl)-4-oxobutyl)-3-(2-ethoxyphenyl)urea] | 
19 | < 100 | COCCCn1c([C@@H]2CCCN(C(=O)C[C@H](N)CNC(=O)Nc3ccccc3OC)C2)nc2ccccc21 [Compound 250, 1-((S)-2-amino-4-((R)-3-(1-(3-methoxypropyl)-1H-benzo[d]imidazol-2-yl)piperidin-1-yl)-4-oxobutyl)-3-(2-methoxyphenyl)urea] | 
20 | < 100 | COCCCn1c([C@@H]2CCCN(C(=O)C[C@H](N)Cc3ccc(N4CCC(CCO)CC4)cc3)C2)nc2ccccc21 [Compound 236, (R)-3-amino-4-(4-(4-(2-hydroxyethyl)piperidin-1-yl)phenyl)-1-((R)-3-(1-(3-methoxypropyl)-1H-benzo[d]imidazol-2-yl)piperidin-1-yl)butan-1-one] | 
21 | < 100 | COCCCn1c([C@@H]2CCCN(C(=O)C[C@H](N)Cc3ccc(-c4cccnc4OC)cc3)C2)nc2ccccc21 [Compound 163, (R)-3-amino-1-((R)-3-(1-(3-methoxypropyl)-1H-benzo[d]imidazol-2-yl)piperidin-1-yl)-4-(4-(2-methoxypyridin-3-yl)phenyl)butan-1-one] | 
